Nine molecules from patent US20260217698A1 (BEYANG THERAPEUTICS CO., LTD., priority 2022, published 2026) can be followed below.

In brackets after ≈: the same amount, converted by molar mass.

The target of series [1] is T1, VEGFR1 (Homo sapiens, UniProt P17948).
T1 construct: purchased Invitrogen PR6731B
Description: Kinase inhibition, Mobility Shift Assay/IMAP, VEGFR1. The format is biochemical. Summed up: (§1)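 Substrate conversion (phosphorylated vs non-phosphorylated) read by mobility shift on Caliper EZ Reader II and converted to % inhibition relative to no-enzyme and DMSO controls. IC50 fitted from % inhibition versus log compound concentration.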

Series [2] has as its target T2, VEGFR3 (Homo sapiens, UniProt P35916).
T2 construct: purchased Invitrogen PV4129
Description: Kinase inhibition, Mobility Shift Assay/IMAP, VEGFR3. The format is biochemical. Summed up:
as §1

For series [3], the target named is T3, TIE2 (Homo sapiens, UniProt Q02763).
T3 construct: purchased BPS 40270
Description: Kinase inhibition, Mobility Shift Assay/IMAP, TIE2. The format is biochemical. The procedure, abridged: as §1

Series [4] deals with T4, EGFR (Homo sapiens, UniProt P00533).
T4 construct: purchased Carna 08-115
T4 sequence (P00533 669-1210 limits assumed): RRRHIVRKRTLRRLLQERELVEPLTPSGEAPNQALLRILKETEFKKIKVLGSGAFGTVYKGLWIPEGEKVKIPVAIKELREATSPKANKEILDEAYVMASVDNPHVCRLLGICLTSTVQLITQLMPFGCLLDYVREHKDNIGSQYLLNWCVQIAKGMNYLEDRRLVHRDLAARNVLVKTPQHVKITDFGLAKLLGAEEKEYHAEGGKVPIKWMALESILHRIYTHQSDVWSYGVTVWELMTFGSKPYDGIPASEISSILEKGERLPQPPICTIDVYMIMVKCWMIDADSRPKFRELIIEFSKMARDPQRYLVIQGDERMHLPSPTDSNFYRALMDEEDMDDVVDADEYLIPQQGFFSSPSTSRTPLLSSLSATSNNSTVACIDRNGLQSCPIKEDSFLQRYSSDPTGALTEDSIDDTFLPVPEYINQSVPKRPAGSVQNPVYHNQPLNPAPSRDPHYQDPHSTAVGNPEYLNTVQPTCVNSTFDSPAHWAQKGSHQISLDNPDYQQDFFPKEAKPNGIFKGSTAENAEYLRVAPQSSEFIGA
The series is described as follows: Kinase inhibition, Mobility Shift Assay/IMAP, EGFR. The format is biochemical. Summed up: as §1

Series [5] concerns HUVEC cells. Description: Inhibition of VEGF-induced HUVEC cell proliferation, CellTiter Glo. The format is cell-based. To be noted: Homo sapiens, 20 ng/ml VEGF, 72 hours. From the text: In this experiment, human umbilical vein endothelial cells (HUVEC, Lonza) were used. HUVEC cells are primary cells isolated from umbilical veins. This cell line is a model system to study the functions of endothelial cells. Endothelial cell proliferation in response to VEGF is crucial to the pathological angiogenesis associated with conditions such as tumor development and ocular neovascular diseases.
In this assay, a luciferase bioluminescence assay (CellTiter GLU™, Promega) is used to determine the inhibitory activity of the compounds against VEGF-induced HUVEC cell proliferation and viability. CellTiter GLO™ is a homogeneous method for quantifying the count of viable cells in culture based on ATP, an indicator of metabolically active cells. In this assay, the compound was incubated with HUVEC cells for 72 hours, and then the inhibitory activity of the resulting compound against VEGF-induced HUVEC cell proliferation was measured on the En Vision plate reader.
With the RPMI-1640 medium (plus 5% FBS, 1% Penicillin-Streptomycin) used for the HUVEC cell proliferation experiment, add a cell suspension to a 96-well plate at 100 μl per well, i.e., 4000 HUVEC cells/well, and incubate them overnight in a 5% CO2 incubator at 37° C. (serum starvation). After 24 hours, add 96 μl of the experimental medium to the cell wells, and then add 2 μl of the compound to the cell wells; and after 1 hour following the addition of the compound, add 2 μl of 2 μg/ml VEGF to the cell wells. Add 0.1% DMSO and 20 ng/ml VEGF to cell wells to serve as high-reading control wells. Take cell-free wells with only medium as low-reading control wells. […] After 72 hours of incubation of the cell plate in the incubator, hold the cell plate to be tested at room temperature and discard 100 μl of medium per well. Add 100 μl of CTG reagent (CellTiter Glo kit) per well, oscillate the cell plate in a fast oscillator for 3 minutes, and keep the cell plate at room temperature in the dark for 30 minutes. Read the chemiluminescence signal value with the Envision instrument.
X indicates the log value of compound concentration, Y indicates the inhibition rate (% inhibition), Top indicates the readout of the high-reading control well.

The nature of series [6]: Solubility test in buffer, LC-MS. The format is physicochemical. To be noted: aqueous buffer, thermodynamic from solid, room temperature, shaking 8 h, pH not given (method: pH 2.0, 6.5, 7.4). Summed up: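 Compound at 2 mg/mL in buffers of pH 2.0, 6.5 and 7.4, sonicated, shaken 8 h at room temperature, then centrifuged at 13,000 rpm. Supernatant quantified by LC-MS against a 3–5 point calibration.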

Series [7] deals with T5, VEGFR2 (Homo sapiens, UniProt P35968). The series is described as follows: Kinase inhibition, Mobility Shift Assay/IMAP, VEGFR2. The format is biochemical. On the set-up: purchased Carna 08-191. Summed up: as §1
Target sequence in this assay (P35968 790-1356 limits assumed): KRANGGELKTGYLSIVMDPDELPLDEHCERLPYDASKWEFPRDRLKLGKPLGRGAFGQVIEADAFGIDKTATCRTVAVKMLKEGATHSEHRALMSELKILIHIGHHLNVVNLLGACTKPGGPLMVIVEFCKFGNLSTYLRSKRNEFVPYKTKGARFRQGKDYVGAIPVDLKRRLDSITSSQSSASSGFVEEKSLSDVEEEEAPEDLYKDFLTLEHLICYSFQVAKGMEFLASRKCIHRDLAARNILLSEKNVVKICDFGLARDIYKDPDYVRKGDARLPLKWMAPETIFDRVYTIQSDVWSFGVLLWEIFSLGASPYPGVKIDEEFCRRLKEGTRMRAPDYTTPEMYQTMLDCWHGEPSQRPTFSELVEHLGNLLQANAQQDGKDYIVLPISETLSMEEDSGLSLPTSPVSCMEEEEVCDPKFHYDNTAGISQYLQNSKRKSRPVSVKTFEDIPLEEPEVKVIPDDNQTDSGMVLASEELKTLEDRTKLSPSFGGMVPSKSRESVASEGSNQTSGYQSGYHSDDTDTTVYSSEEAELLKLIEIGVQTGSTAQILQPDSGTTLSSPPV
Series [8] concerns the target T5, VEGFR2. The series is described as follows: Inhibition of VEGF-induced VEGFR2 autophosphorylation (pVEGFR2) in HUVEC cells, ELISA. The format is cell-based. On the set-up: endogenous in cells; host or cells: HUVEC. To be noted: 50 ng/mL human VEGF, compound 1 h. The source says:
Vascular endothelial growth factor receptor 2 (VEGFR2) is a primary receptor for VEGF-induced endothelial cell signaling. After ligand binding, VEGFR2 is autophosphorylated and activated. The main function of signaling from VEGFR2 is to induce vascularization during development and after tissue injury, and to bypass blocked blood vessels. Pathologically, VEGF and VEGFR2 are involved in tumor angiogenesis and vascular leakage. They are considered to be main participants in many different cancers and ocular diseases that accompany pathological neovascularization. This assay measured the ability of the compounds to inhibit VEGF-induced VEGFR2 autophosphorylation (pVEGFR2) in HUVEC cells by using ELISA.
Culture cells in a cell culture flask to reach a fusion degree of 60%-80% before cell inoculation. Dilute the cell suspension to […] with a pre-warmed complete medium. Add 80 μL of the cell suspension to all wells of a 96-well cell plate (Corning-3599); and incubate the plate overnight at 37° C. in the presence of 5% CO2. Dissolve the compound powder to 10 mM with DMSO and store it in a nitrogen cabinet. Compound dilution plate: Add a reference compound Ponatinib or a compound to be tested to a 96 V-well plate (Axygen-WIPP 2280) at concentrations achieved as follows: performing 3-fold gradient dilution starting from 5 mM (5 μL of 10 mM compound solution plus 5 μL of DMSO) for a total of 8 concentration points. […] Transfer 20 μL of the diluted compound from the intermediate plate to a cell plate. Then, incubate the cell plate for 1 h at 37° C. in the presence of 5% CO2. After the compound was treated for 1 h, add 25 μL of 250 ng/ml human VEGF at a final concentration of 50 ng/mL to a 96-well plate; and incubate the plate for 5 min at 37° C. in the presence of 5% CO2, centrifuge the plate for 10 min at 3,000 rpm, remove the medium and wash the cells once with 300 μL of pre-chilled DPBS per well. Then, centrifuge the plate for 10 min at 4,000 rpm, remove DPBS, and add 110 μL of pre-chilled 1× cell lysis buffer per well to the 96-well plate. Shake the plate for 40 min at 4° C. Then, freeze the plate in a refrigerator at −80° C. On the next day, remove the plate from the refrigerator at −80° C., thaw the plate, centrifuge the plate for 10 min at 3500 rpm, and add 100 μL of the supernatant per well to an ELISA plate. Seal the plate and incubate it for 2 h at 37° C. Wash the wells 4 times with 1× wash buffer. Add 100 μL of recombinant detection antibody per well. Seal the plate, incubate the plate for 1 h at 37° C., and repeat the step of plate washing. Add 100 μL of secondary antibody per well. Seal the plate, incubate the plate for 30 min at 37° C., and repeat the step of plate washing. Add 100 μL of TMB (protected from light) per well. Seal the plate, incubate the plate for 30 min at 37° C., and add 100 μL of the stop solution per well. Gently shake for 30 sec, measure the absorbance with a SpectraMax® 340 PC 384 Absorbance Microplate Reader within 30 min, and read an optical density value at 450 nm. Conduct data analysis using XL Fit software:
Conduct curve fitting using the 4 Parameter Logistic Model or Sigmoidal Dose-Response Model to obtain IC50 values.
X indicates the log value of compound concentration, Y indicates the inhibition rate (% inhibition), Top indicates the readout of the negative control wells, and Bottom indicates the readout of the positive control well.
Target sequence in this assay (P35968 20-1356): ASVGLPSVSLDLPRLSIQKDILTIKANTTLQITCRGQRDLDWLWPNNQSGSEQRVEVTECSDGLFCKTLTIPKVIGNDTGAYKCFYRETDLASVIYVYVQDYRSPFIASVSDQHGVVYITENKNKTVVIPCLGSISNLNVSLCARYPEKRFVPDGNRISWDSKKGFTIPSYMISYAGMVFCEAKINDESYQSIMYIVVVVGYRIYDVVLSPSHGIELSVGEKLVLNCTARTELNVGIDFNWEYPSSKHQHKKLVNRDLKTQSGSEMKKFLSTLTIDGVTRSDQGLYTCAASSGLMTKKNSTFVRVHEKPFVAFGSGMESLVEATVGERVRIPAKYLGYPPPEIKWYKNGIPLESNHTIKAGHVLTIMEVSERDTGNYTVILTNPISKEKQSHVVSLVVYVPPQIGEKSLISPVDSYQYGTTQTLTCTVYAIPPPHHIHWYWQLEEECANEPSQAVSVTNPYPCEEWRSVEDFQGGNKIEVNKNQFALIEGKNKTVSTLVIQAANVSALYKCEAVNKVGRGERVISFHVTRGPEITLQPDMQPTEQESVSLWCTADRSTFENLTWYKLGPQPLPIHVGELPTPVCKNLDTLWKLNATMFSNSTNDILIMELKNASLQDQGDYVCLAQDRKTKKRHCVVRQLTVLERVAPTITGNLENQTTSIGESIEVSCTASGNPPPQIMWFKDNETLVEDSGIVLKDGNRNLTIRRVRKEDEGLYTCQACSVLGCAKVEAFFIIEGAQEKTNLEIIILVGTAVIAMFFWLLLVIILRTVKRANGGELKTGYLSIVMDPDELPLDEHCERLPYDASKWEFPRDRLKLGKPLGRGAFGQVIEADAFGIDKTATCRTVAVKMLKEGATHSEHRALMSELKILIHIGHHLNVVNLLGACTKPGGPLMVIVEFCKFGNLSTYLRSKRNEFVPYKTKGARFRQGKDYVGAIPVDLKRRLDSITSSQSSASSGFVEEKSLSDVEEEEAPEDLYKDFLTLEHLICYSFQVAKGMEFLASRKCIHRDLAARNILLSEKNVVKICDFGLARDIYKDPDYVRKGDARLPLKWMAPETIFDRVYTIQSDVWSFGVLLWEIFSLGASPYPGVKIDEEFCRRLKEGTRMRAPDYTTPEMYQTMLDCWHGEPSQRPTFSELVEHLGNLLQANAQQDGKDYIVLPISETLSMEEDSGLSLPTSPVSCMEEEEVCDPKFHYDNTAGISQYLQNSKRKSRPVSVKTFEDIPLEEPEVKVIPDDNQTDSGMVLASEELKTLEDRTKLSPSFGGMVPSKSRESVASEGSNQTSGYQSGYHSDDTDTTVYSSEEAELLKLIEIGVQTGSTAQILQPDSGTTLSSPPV

In series [9] the test system is melanin. The series is described as follows: Binding capacity of compounds to melanin. The format is in vitro ADME, cuttlefish (Sepia officinalis). The following applies: cuttlefish (Sepia officinalis), melanin suspension (1 mg/mL); 1 mg/mL melanin in PBS pH 7.4, 2 μM compound, 2 h at 37° C.; read-out: Fu % (percentage of free drug). Summed up: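 Compound (2 μM final) incubated with washed Sepia melanin (1 mg/mL, PBS pH 7.4) 2 h at 37° C with shaking; PBS with 0.1% BSA served as blank. Supernatants quantified by LC-MS/MS; bound fraction Fb derived from melanin versus blank concentration.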

T1 sequence (P17948 27-1338): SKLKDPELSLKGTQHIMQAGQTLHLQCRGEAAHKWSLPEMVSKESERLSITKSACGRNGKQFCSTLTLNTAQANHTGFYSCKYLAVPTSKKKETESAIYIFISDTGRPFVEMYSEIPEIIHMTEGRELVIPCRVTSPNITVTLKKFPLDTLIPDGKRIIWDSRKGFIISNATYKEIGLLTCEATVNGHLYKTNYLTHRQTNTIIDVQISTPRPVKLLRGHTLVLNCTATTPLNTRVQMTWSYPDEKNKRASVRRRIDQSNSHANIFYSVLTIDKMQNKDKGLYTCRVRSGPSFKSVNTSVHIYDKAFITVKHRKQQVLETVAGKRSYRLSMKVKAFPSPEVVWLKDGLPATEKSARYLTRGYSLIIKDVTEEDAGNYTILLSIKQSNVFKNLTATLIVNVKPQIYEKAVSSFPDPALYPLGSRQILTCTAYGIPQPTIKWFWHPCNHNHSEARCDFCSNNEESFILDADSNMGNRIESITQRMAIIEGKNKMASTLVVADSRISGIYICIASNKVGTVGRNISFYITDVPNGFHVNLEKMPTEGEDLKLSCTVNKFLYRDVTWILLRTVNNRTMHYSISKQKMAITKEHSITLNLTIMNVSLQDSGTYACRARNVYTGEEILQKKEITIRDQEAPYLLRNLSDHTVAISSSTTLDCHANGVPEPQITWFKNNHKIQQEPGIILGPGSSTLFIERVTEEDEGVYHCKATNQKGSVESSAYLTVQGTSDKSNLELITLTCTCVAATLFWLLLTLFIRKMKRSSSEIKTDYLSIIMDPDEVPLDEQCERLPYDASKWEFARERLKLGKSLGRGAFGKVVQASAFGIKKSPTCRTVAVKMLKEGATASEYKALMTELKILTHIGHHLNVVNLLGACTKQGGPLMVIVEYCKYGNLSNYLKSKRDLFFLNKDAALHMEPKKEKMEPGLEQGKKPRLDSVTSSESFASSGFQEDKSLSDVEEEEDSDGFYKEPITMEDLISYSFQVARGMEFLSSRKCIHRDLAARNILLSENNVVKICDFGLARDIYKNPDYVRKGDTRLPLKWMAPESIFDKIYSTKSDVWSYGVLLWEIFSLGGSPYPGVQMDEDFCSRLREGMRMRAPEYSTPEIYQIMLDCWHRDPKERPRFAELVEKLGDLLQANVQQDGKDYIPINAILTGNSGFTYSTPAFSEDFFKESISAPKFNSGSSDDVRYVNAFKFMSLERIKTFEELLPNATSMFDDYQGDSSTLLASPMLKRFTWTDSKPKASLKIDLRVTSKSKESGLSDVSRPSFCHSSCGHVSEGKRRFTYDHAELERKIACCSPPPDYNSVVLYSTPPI
T2 sequence (P35916 25-1363): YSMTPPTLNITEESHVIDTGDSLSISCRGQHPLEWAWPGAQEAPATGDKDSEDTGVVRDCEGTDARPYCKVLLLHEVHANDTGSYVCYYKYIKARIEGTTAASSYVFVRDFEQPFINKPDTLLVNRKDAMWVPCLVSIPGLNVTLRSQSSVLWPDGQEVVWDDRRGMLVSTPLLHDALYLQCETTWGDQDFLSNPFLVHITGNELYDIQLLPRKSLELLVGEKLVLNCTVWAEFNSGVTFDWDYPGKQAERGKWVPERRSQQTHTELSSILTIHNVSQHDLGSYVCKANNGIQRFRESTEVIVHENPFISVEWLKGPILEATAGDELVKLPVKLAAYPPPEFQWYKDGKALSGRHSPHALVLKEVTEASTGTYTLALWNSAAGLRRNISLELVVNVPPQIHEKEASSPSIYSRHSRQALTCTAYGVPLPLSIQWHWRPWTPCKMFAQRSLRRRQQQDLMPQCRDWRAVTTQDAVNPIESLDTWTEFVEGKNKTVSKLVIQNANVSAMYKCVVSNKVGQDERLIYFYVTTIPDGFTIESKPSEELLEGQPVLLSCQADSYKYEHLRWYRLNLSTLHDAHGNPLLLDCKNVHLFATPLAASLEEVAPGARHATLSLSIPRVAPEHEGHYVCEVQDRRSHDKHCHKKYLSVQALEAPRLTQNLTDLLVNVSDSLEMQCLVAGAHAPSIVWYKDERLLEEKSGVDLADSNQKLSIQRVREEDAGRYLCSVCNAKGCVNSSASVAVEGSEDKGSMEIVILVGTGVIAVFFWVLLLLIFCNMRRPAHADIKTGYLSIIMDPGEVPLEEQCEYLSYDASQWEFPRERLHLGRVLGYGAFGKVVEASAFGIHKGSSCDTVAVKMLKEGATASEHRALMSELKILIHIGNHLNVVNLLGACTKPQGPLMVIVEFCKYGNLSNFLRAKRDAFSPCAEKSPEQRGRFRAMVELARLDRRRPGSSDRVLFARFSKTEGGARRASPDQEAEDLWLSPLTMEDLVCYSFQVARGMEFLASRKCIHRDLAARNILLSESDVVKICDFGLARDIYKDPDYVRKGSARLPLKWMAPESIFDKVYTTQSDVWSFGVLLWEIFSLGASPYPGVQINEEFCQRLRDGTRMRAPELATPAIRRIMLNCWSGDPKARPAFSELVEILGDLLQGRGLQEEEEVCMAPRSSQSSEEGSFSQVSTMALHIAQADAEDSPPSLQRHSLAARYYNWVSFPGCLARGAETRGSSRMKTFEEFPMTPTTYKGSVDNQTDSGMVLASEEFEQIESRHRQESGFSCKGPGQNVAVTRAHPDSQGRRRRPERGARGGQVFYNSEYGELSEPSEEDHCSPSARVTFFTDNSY

As to `NC(=O)c1c(OCc2ccc3c(c2)OCC3)nsc1NC(=O)NCCCCN1CCCC1` [Compound T042, 3-((2,3-dihydrobenzofuran-6-yl)methoxy)-5-(3-(4-(pyrrolidin-1-yl)butyl)ureido)isothiazole-4-carboxamide], the IC50 in series [1] turned out to be 34.3 nM; in series [2], 42 nM; in [3] it was 448 nM; in series [4], 33000 nM; in series [5], 79.9 nM; in [7] it was 14.2 nM. The same molecule showed an IC50 in series [8] of 22 nM. The molecule further showed a solubility at 8 h in [6] of 820 µg/mL (≈ 1780 µM).
With `CN1CCN(CCCNC(=O)Nc2snc(OCc3ccc(F)c(C(=O)NC4CC4)c3)c2C(N)=O)CC1` [Compound T078, 3-[[3-(cyclopropylcarbamoyl)-4-fluoro-phenyl]methoxy]-5-[3-(4-methylpiperazin-1-yl)propylcarbamoylamino]isothiazole-4-carboxamide], the IC50 is 5.72 nM in series [1]; 16.8 nM in series [2]; 4060 nM in [3]; 16100 nM in series [4]; 2.09 nM in series [7]; 56.5 nM in series [8]. This molecule also yielded a solubility at 8 h in series [6] of 800 µg/mL (≈ 1500 µM). Also, the fraction unbound at 2 h, 2 μM in series [9] was 0.0241.
For the molecule `CN1CC[C@H](CCNC(=O)Nc2snc(OCc3cc4c(cc3F)CCO4)c2C(N)=O)C1` [Compound T095, 3-[(5-fluoro-2,3-dihydrobenzofuran-6-yl)methoxy]-5-[2-[(3S)-1-methylpyrrolidin-3-yl]ethylcarbamoylamino] isothiazole-4-carboxamide], the IC50 amounted to 11400 nM in series [4], 55.8 nM in series [5], 4.7 nM in series [7] and 93 nM in series [8]. Moreover, the fraction unbound at 2 h, 2 μM in series [9] was determined as 0.0469.
In the case of `COc1ccc(F)c(COc2nsc(NC(=O)NCCCCN3CC[C@H](O)C3)c2C(N)=O)c1F` [Compound T104, 3-[(2,6-difluoro-3-methoxy-phenyl)methoxy]-5-[4-[(3S)-3-hydroxypyrrolidin-1-yl]butylcarbamoylamino] isothiazole-4-carboxamide], the IC50 in [4] is 18900 nM; in series [5], 35.5 nM; in series [7] it was 16.4 nM; in series [8] it was 34.5 nM. The fraction unbound at 2 h, 2 μM in series [9] came to 0.0322.
In the same order, the values of `COc1ccc(F)c(COc2nsc(NC(=O)NCCCCN3CC[C@@H](O)C3)c2C(N)=O)c1F` [Compound T114, 3-[(2,6-difluoro-3-methoxy-phenyl)methoxy]-5-[4-[(3R)-3-hydroxypyrrolidin-1-yl]butylcarbamoylamino]isothiazole-4-carboxamide] are 13400 nM, 19 nM, 12.8 nM, 32.5 nM and 0.0333.
With `COc1cc(OC)c(F)c(COc2nsc(NC(=O)NCCC3CCN(CCF)CC3)c2C(N)=O)c1F` [Compound T126, 3-[(2,6-difluoro-3,5-dimethoxy-phenyl)methoxy]-5-[2-[1-(2-fluoroethyl)-4-piperidyl]ethylcarbamoylamino]isothiazole-4-carboxamide], the IC50 in series [4] was more than 60000 nM; in [5], 22 nM; in series [7], 2.7 nM; in series [8] it was 27 nM. Moreover, in series [9], the fraction unbound at 2 h, 2 μM was 0.0495.
With `COc1ccc(F)c(COc2nsc(NC(=O)NCCCCN3CCCCC3)c2C(N)=O)c1F` [Compound T131, 3-[(2,6-difluoro-3-methoxy-phenyl)methoxy]-5-[4-(1-piperidyl)butylcarbamoylamino]isothiazole-4-carboxamide], the IC50 in [4] amounted to 15000 nM; in [7], 17.4 nM; in series [8] it was 19 nM. Moreover, in series [6], the solubility at 8 h turned out to be 278 µg/mL (≈ 559 µM). In addition, the fraction unbound at 2 h, 2 μM in [9] worked out at 0.0629.
For the molecule `CN1CCN(CCNC(=O)Nc2snc(OCc3ccc(F)c(C(=O)NC4CC4)c3)c2C(N)=O)CC1` [Compound T149, 3-[[3-(cyclopropylcarbamoyl)-4-fluoro-phenyl]methoxy]-5-[2-(4-methylpiperazin-1-yl)ethylcarbamoylamino]isothiazole-4-carboxamide], the IC50 in [1] is 2.39 nM; in [2], 10 nM; in series [4], 12000 nM; in [7], 2.35 nM; in [8] it was 52.2 nM. Further, the concentration in solution in [6] (solubility at 8 h) was 1580 µg/mL (≈ 3040 µM).
Take `NC(=O)c1c(OCc2ccc(F)c(C(=O)NC3CC3)c2)nsc1NC(=O)NCCCCN1CCCC1` [Compound T151, 3-[[3-(cyclopropylcarbamoyl)-4-fluoro-phenyl]methoxy]-5-(4-pyrrolidin-1-ylbutylcarbamoylamino)isothiazole-4-carboxamide]: the IC50 was 1.53 nM in [1]; 3.91 nM in [2]; 10700 nM in [4]; 1.75 nM in [7]; 68.4 nM in series [8]. Further, the solubility at 8 h in series [6] is 1340 µg/mL (≈ 2590 µM).
